# Assay results from paper PMC5578959, “Selective LRRK2 kinase inhibition reduces phosphorylation of endogenous Rab10 and Rab12 in human peripheral mononuclear blood cells” (Scientific Reports, 2017).
# Assays:
# Test in all cases: KiNativ profiling in human PBMCs
# Format in all cases: binding
# SYK = system: T1, SYK
# T1 construct: purchased ActivX Technologies (KiNativ)
# Method in brief: (§1)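 KiNativ readout; intact PBMCs dosed with compound at two concentrations (1 µM, 0.1 µM) before profiling.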
# IKKa = system: T2, IKKa; conditions: Lys2
# T2 construct: purchased ActivX Technologies (KiNativ)
# Method in brief: as §1
# CaMK2d = system: T3, CaMK2d; conditions: Lys1
# T3 construct: purchased ActivX Technologies (KiNativ)
# Method in brief: as §1
# NEK7 = system: T4, NEK7; conditions: Lys1
# T4 construct: purchased ActivX Technologies (KiNativ)
# Method in brief: as §1
# MAP3K2,MAP3K3 = conditions: Lys2
# Method in brief: as §1
# [1] = system: CaMK2a,CaMK2b,CaMK2d,CaMK2g; conditions: Lys2
# Method in brief: as §1
# HPK1 = system: T5, HPK1
# T5 construct: purchased ActivX Technologies (KiNativ)
# Method in brief: as §1
# TAO1,TAO3 = conditions: Lys2
# Method in brief: as §1
# Wnk1,Wnk2,Wnk4 = conditions: Activation Loop
# Method in brief: as §1
# LOK = system: T6, LOK
# T6 construct: purchased ActivX Technologies (KiNativ)
# Method in brief: as §1
# IRE1 = system: T7, IRE1; conditions: Lys2
# T7 construct: purchased ActivX Technologies (KiNativ)
# Method in brief: as §1
# RSKL1 domain1 = system: T8, RSKL1 domain1; conditions: ATP
# T8 construct: RSKL1 domain1; purchased ActivX Technologies (KiNativ)
# Method in brief: as §1
# LCK = system: T9, LCK; conditions: Activation Loop
# T9 construct: purchased ActivX Technologies (KiNativ)
# Method in brief: as §1
# PIP5K3 = system: T10, PIP5K3; conditions: ATP
# T10 construct: purchased ActivX Technologies (KiNativ)
# Method in brief: as §1
# PI4KB = system: T11, PI4KB; conditions: ATP
# T11 construct: purchased ActivX Technologies (KiNativ)
# Method in brief: as §1
# QSK = system: T12, QSK; conditions: Lys1
# T12 construct: purchased ActivX Technologies (KiNativ)
# Method in brief: as §1
# MLKL = system: T13, MLKL; conditions: Lys1
# T13 construct: purchased ActivX Technologies (KiNativ)
# Method in brief: as §1
# GCK = system: T14, GCK
# T14 construct: purchased ActivX Technologies (KiNativ)
# Method in brief: as §1
# LYN = system: T15, LYN
# T15 construct: purchased ActivX Technologies (KiNativ)
# Method in brief: as §1
# p38d,p38g = conditions: Lys2
# Method in brief: as §1
# MAP2K1,MAP2K2 = conditions: Lys2
# Method in brief: as §1
# LKB1 = system: T16, LKB1; conditions: Lys2
# T16 construct: purchased ActivX Technologies (KiNativ)
# Method in brief: as §1
# MAST3 = system: T17, MAST3; conditions: Lys2
# T17 construct: purchased ActivX Technologies (KiNativ)
# Method in brief: as §1
# AKT2,AKT3 = conditions: ATP Loop
# Method in brief: as §1
# IKKb = system: T18, IKKb
# T18 construct: purchased ActivX Technologies (KiNativ)
# Method in brief: as §1
# TLK2 = system: T19, TLK2
# T19 construct: purchased ActivX Technologies (KiNativ)
# Method in brief: as §1
# MARK3 = system: T20, MARK3; conditions: Lys1
# T20 construct: purchased ActivX Technologies (KiNativ)
# Method in brief: as §1
# HCK = system: T21, HCK
# T21 construct: purchased ActivX Technologies (KiNativ)
# Method in brief: as §1
# NEK1 = system: T22, NEK1; conditions: Lys2
# T22 construct: purchased ActivX Technologies (KiNativ)
# Method in brief: as §1
# FRAP = system: T23, FRAP; conditions: 0.1µM; ATP
# T23 construct: purchased ActivX Technologies (KiNativ)
# Method in brief: as §1
# Wnk1,Wnk2,Wnk3 = conditions: Lys2
# Method in brief: as §1
# CK1g2 = system: T24, CK1g2; conditions: Lys2
# T24 construct: purchased ActivX Technologies (KiNativ)
# Method in brief: as §1
# NDR2 = system: T25, NDR2
# T25 construct: purchased ActivX Technologies (KiNativ)
# Method in brief: as §1
# PIP4K2A = system: T26, PIP4K2A; conditions: ATP
# T26 construct: purchased ActivX Technologies (KiNativ)
# Method in brief: as §1
# RSK1 domain1 = system: T27, RSK1 domain1
# T27 construct: RSK1 domain1; purchased ActivX Technologies (KiNativ)
# Method in brief: as §1
# KHS1 = system: T28, KHS1; conditions: Lys1
# T28 construct: purchased ActivX Technologies (KiNativ)
# Method in brief: as §1
structure (smiles),measurement,setting,value
Cn1cc(-c2c[nH]c3ncnc(N4CCOCC4)c23)cc1C#N [PFE-360],% Inhibition,"SYK; 0.1µM, Activation Loop",1.9%
same,% Inhibition,"SYK; 0.1µM, Lys1",0.1%
same,% Inhibition,"SYK; 1µM, Activation Loop",-4.4%
same,% Inhibition,"SYK; 1µM, Lys1",-13%
same,% Inhibition,IKKa; 0.1µM,17.9%
same,% Inhibition,IKKa; 1µM,15.8%
same,% Inhibition,CaMK2d; 0.1µM,0.1%
same,% Inhibition,CaMK2d; 1µM,-3%
same,% Inhibition,NEK7; 0.1µM,2.8%
same,% Inhibition,NEK7; 1µM,11.7%
same,% Inhibition,"MAP3K2,MAP3K3; 0.1µM",-2.6%
same,% Inhibition,"MAP3K2,MAP3K3; 1µM",-12.9%
same,% Inhibition,[1]; 0.1µM,6.1%
same,% Inhibition,[1]; 1µM,1.2%
same,% Inhibition,"HPK1; 0.1µM, Lys1",-22.3%
same,% Inhibition,"HPK1; 0.1µM, Lys2",1.2%
same,% Inhibition,"HPK1; 1µM, Lys1",7.8%
same,% Inhibition,"HPK1; 1µM, Lys2",0%
same,% Inhibition,"TAO1,TAO3; 0.1µM",-0.2%
same,% Inhibition,"TAO1,TAO3; 1µM",-14.3%
same,% Inhibition,"Wnk1,Wnk2,Wnk4; 0.1µM",4.7%
same,% Inhibition,"Wnk1,Wnk2,Wnk4; 1µM",2.2%
same,% Inhibition,"LOK; 0.1µM, ATP Loop",26.9%
same,% Inhibition,"LOK; 0.1µM, Lys1",5.3%
same,% Inhibition,"LOK; 0.1µM, Lys2",-2.3%
same,% Inhibition,"LOK; 1µM, ATP Loop",29.8%
same,% Inhibition,"LOK; 1µM, Lys1",39.7%
same,% Inhibition,"LOK; 1µM, Lys2",22.4%
same,% Inhibition,IRE1; 0.1µM,-14.5%
same,% Inhibition,IRE1; 1µM,10.8%
same,% Inhibition,RSKL1 domain1; 0.1µM,-38%
same,% Inhibition,RSKL1 domain1; 1µM,7.3%
same,% Inhibition,LCK; 0.1µM,-11.6%
same,% Inhibition,LCK; 1µM,-0.3%
same,% Inhibition,PIP5K3; 0.1µM,-6.1%
same,% Inhibition,PIP5K3; 1µM,-15.9%
same,% Inhibition,"PI4KB; 0.1µM, peptide LLSVIVKCGDDLRQELLAFQVLK",-14.7%
same,% Inhibition,"PI4KB; 0.1µM, peptide VPHTQAVVLNSKDK",3.6%
same,% Inhibition,"PI4KB; 1µM, peptide LLSVIVKCGDDLRQELLAFQVLK",-10.6%
same,% Inhibition,"PI4KB; 1µM, peptide VPHTQAVVLNSKDK",-12.4%
same,% Inhibition,QSK; 0.1µM,-13%
same,% Inhibition,QSK; 1µM,-12.1%
same,% Inhibition,MLKL; 0.1µM,2.3%
same,% Inhibition,MLKL; 1µM,5.2%
same,% Inhibition,"GCK; 0.1µM, Lys1",7.4%
same,% Inhibition,"GCK; 0.1µM, Lys2",6.5%
same,% Inhibition,"GCK; 1µM, Lys1",11.4%
same,% Inhibition,"GCK; 1µM, Lys2",-7.7%
same,% Inhibition,"LYN; 0.1µM, Activation Loop",7.3%
same,% Inhibition,"LYN; 0.1µM, Lys1",-30.4%
same,% Inhibition,"LYN; 1µM, Activation Loop",7.8%
same,% Inhibition,"LYN; 1µM, Lys1",7.4%
same,% Inhibition,"p38d,p38g; 0.1µM",0.8%
same,% Inhibition,"p38d,p38g; 1µM",-7.7%
same,% Inhibition,"MAP2K1,MAP2K2; 0.1µM",13.4%
same,% Inhibition,"MAP2K1,MAP2K2; 1µM",12.9%
same,% Inhibition,LKB1; 0.1µM,6.5%
same,% Inhibition,LKB1; 1µM,0.4%
same,% Inhibition,MAST3; 0.1µM,0.2%
same,% Inhibition,MAST3; 1µM,-2.7%
same,% Inhibition,"AKT2,AKT3; 0.1µM",-2.2%
same,% Inhibition,"AKT2,AKT3; 1µM",-5.2%
same,% Inhibition,"IKKb; 0.1µM, Lys1",-5%
same,% Inhibition,"IKKb; 0.1µM, Lys2",-6%
same,% Inhibition,"IKKb; 1µM, Lys1",-10.5%
same,% Inhibition,"IKKb; 1µM, Lys2",-31.2%
same,% Inhibition,"TLK2; 0.1µM, Lys1",-8.8%
same,% Inhibition,"TLK2; 0.1µM, Lys2",-5.5%
same,% Inhibition,"TLK2; 1µM, Lys1",-9.2%
same,% Inhibition,"TLK2; 1µM, Lys2",-10.6%
same,% Inhibition,MARK3; 0.1µM,4.8%
same,% Inhibition,MARK3; 1µM,4.7%
same,% Inhibition,"HCK; 0.1µM, Activation Loop",-0.8%
same,% Inhibition,"HCK; 0.1µM, Lys1",-20.8%
same,% Inhibition,"HCK; 1µM, Activation Loop",-4.1%
same,% Inhibition,"HCK; 1µM, Lys1",12.3%
same,% Inhibition,NEK1; 0.1µM,5.9%
same,% Inhibition,NEK1; 1µM,2.6%
same,% Inhibition,FRAP,-1.2%
same,% Inhibition,"Wnk1,Wnk2,Wnk3; 0.1µM",11.3%
same,% Inhibition,"Wnk1,Wnk2,Wnk3; 1µM",1.3%
same,% Inhibition,CK1g2; 0.1µM,-2%
same,% Inhibition,CK1g2; 1µM,-13.3%
same,% Inhibition,"NDR2; 0.1µM, Lys1",-18.6%
same,% Inhibition,"NDR2; 0.1µM, Lys2",2.7%
same,% Inhibition,"NDR2; 1µM, Lys1",-5.5%
same,% Inhibition,"NDR2; 1µM, Lys2",-8.1%
same,% Inhibition,"PIP4K2A; 0.1µM, peptide AKELPTLKDNDFINEGQK",-3.9%
same,% Inhibition,"PIP4K2A; 0.1µM, peptide YIIKTITSEDVAEMHNILK",-34.5%
same,% Inhibition,"PIP4K2A; 1µM, peptide AKELPTLKDNDFINEGQK",-16.3%
same,% Inhibition,"PIP4K2A; 1µM, peptide YIIKTITSEDVAEMHNILK",-40%
same,% Inhibition,"RSK1 domain1; 0.1µM, Activation Loop",4.6%
same,% Inhibition,"RSK1 domain1; 0.1µM, Lys1",-11.3%
same,% Inhibition,"RSK1 domain1; 0.1µM, Lys2",-4.4%
same,% Inhibition,"RSK1 domain1; 1µM, Activation Loop",1.1%
same,% Inhibition,"RSK1 domain1; 1µM, Lys1",3.4%
same,% Inhibition,"RSK1 domain1; 1µM, Lys2",10.9%
same,% Inhibition,KHS1; 0.1µM,1.1%
same,% Inhibition,KHS1; 1µM,-9.3%
